Results from patent publication US20090036417A1, “COCHLEATES WITHOUT METAL CATIONS AS BRIDGING AGENTS” (priority 2002, published 2009).

Assays:
[1] = Loading capacity of cochleates for molecules as bridging agents (UV absorption / HPLC); type: physicochemical; details: with the lipid amount of column Lipids (mg): 5 mg for TAPS, 38.11 mg for Tobramycine
Experimental: Loading capacities of the new cochelates and nano-cochleates for TAS and tobramycin were determined. For TAS, known amounts of cochleates or nano-cochleates were first dissolved with chloroform, then added with water (pH=2), followed by strong shaking. The water phase was separated hereafter, and the same procedure was repeated two more times. The water phases collected three times were combined. The concentration of the extract was determined by UV absorption at 380 nm. […] The loading amount was determined based on the decreased concentration in the supernatant after cochleate formation. For mobile phase, 2.0 g of tris (hydroxymethyl) aminomethan was first dissolved with 800 ml of water, followed by addition of 20 ml of 1N H2SO4 and acetanitrile to a total volume of 2000 ml. For detectability, a solution of 2,4-dinitrofluourobene (10 mg/ml in alcohol) was prepared within 5 days prior to use and refrigerated. A water solution of tris (hydroxymethyl) aminomethane (15 mg/ml) was also prepared as a stock solution. Within 4 hours of analysis, this stock solution, 40 ml, was diluted with dimethyl sulfoxide (DMSO) to 200 ml. […] For the supernatant (the sample to be measured), 1 ml of 5.5 mg/ml of tobramycin solution was added into a liposome suspension with a lipid-to-drug ratio of 1:5. […]

E. Coli cell line, DH5α = test: Antibiotic activity of tobramycin in solution, cochleates and nano-cochleates (colony counting); type: cell-based; details: 0.5 μg/ml, 37° C., 24 hrs
Experimental: FIG. 9. Antibiotic activity of tobramycin formulated in solution, cochleates and nano-cochleates. The drug of various doses were added to E. Coli prior to incubation at 37° C., followed by counting of the colonies. Tobramycin was selected as a model drug to examine the capability of cochelates and nano-cochleates to deliver hydrophilic drugs across cell membranes because the antibiotic function of tobramycin relies on its binding to ribosomes inside of cells. In other words, tobramycin's antibiotic activity reflects internalization of the drug into the cells. For this purpose, tobramycin-loaded cochleates and nano-cochleates prepared as in Example 2 were incubated with E. Coli at various doses. As a control, a tobramycin solution was also incubated with E. Coli under identical conditions. Experimentally, one drop of E. Coli cell line, DH5α, was added to 2 ml LB Broth solution and incubated at 37° C. for 24 hrs to prepare 1:10 DH5α culture solution. Then, 5 ul of the DH5α culture solution was diluted to 2 ml and tobramycin was added in the form of cochleates and nano-cochleates at the final concentrations of 0, 0.5, 1.0, 2.5, and 5.0 μg/ml, respectively. The tobramycin-added cell cultures were incubated at 37° C., with shaking at 200 rpm, for 24 hrs. […]

Drug (mg) loaded in cochleates [1]: 5.5 mg
SMILES: NC[C@H]1O[C@H](O[C@H]2[C@H](O)[C@@H](O[C@H]3O[C@H](CO)[C@@H](O)[C@H](N)[C@H]3O)[C@H](N)C[C@@H]2N)[C@H](N)C[C@@H]1O [Tobramycine, tobramycin]
antibiotic activity of drug solution relative to large cochleates (E. Coli cell line, DH5α): 75 times
antibiotic activity of drug solution relative to nano-cochleates (E. Coli cell line, DH5α): slightly higher
